# Source: US6358885B1, “Substituted phenylheterocyclic herbicides” (Mississippi State University, priority 1992, dated 2002)
# Tests used:
# sorghum = assay: Test C preemergence/postemergence greenhouse plant response rating 0 to 100; assay type: in vivo, Sorghum bicolor; settings: POSTEMERGENCE; for Plant response rating, Sorghum: 0 to 100 scale
# Method in brief: (§1)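 Compounds in non-phytotoxic solvent went onto sandy loam before emergence (seeded one day earlier) or onto plants at the one-to-four leaf stage. Duck salad was treated via flood water (~2.5 cm, maintained) over silt loam.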
# velvetleaf [1] = assay: Test B preemergence/postemergence greenhouse plant response rating 0 to 10; assay type: in vivo, Abutilon theophrasti; settings: 0 to 10 scale
# Method in brief: (§2)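 Test chemicals were sprayed onto freshly planted seed and, concurrently, onto young plants between the one and four leaf stage. After a twelve- to sixteen-day greenhouse period, each species was visually compared with untreated controls.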
# lambsquarters [2] = assay: as above; assay type: in vivo, Chenopodium album; settings: 0 to 10 scale
# Method in brief: as §2
# rice = assay: as above; assay type: in vivo, Oryza sativa; settings: 0 to 10 scale
# Method in brief: as §2
# cotton = assay: as above; assay type: in vivo, Gossypium hirsutum; settings: for Plant response rating, Cotton: 0 to 10 scale
# Method in brief: as §2
# umbrella sedge = assay: Test C flood test plant response rating 0 to 100; assay type: in vivo, Cyperus difformis; settings: for Plant response rating Umbrella sedge: flood test species listed under POSTEMERGENCE, 0 to 100 scale
# Method in brief: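 Compounds in non-phytotoxic solvent applied preemergence to sandy loam one day after planting, postemergence at the 1–4 leaf stage, or to ~2.5 cm floodwater over silt loam.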
# sugar beet = assay: Test C preemergence/postemergence greenhouse plant response rating 0 to 100; assay type: in vivo, Beta vulgaris; settings: POSTEMERGENCE; for Plant response rating, Sugar beet: 0 to 100 scale
# Method in brief: as §1
# morningglory = assay: as above; assay type: in vivo, Ipomoea hederacea; settings: POSTEMERGENCE; for Plant response rating, Morningglory: 0 to 100 scale
# Method in brief: as §1
# purple nutsedge = assay: Test B preemergence/postemergence greenhouse plant response rating 0 to 10; assay type: in vivo, Cyperus rotundus; settings: 0 to 10 scale
# Method in brief: as §2
# barley = assay: Test C preemergence/postemergence greenhouse plant response rating 0 to 100; assay type: in vivo, Hordeum vulgare; settings: POSTEMERGENCE; for Plant response rating Barley Igri: 0 to 100 scale
# Method in brief: as §1
# soybean [3] = assay: Test B preemergence/postemergence greenhouse plant response rating 0 to 10; assay type: in vivo, Glycine max; settings: 0 to 10 scale
# Method in brief: as §2
# lambsquarters [4] = assay: Test C preemergence/postemergence greenhouse plant response rating 0 to 100; assay type: in vivo, Chenopodium album; settings: POSTEMERGENCE; for Plant response rating Lambsquarters: 0 to 100 scale
# Method in brief: as §1
# rape = assay: as above; assay type: in vivo, Brassica napus; settings: POSTEMERGENCE; for Plant response rating, Rape: 0 to 100 scale
# Method in brief: as §1
# corn = assay: as above; assay type: in vivo, Zea mays; settings: POSTEMERGENCE; for Plant response rating, Corn: 0 to 100 scale
# Method in brief: as §1
# cheatgrass = assay: Test B preemergence/postemergence greenhouse plant response rating 0 to 10; assay type: in vivo, Bromus secalinus; settings: for Plant response rating, Cheatgrass: 0 to 10 scale
# Method in brief: as §2
# wild buckwheat = assay: as above; assay type: in vivo, Polygonum convolvulus; settings: 0 to 10 scale
# Method in brief: as §2
# soybean [5] = assay: Test C preemergence/postemergence greenhouse plant response rating 0 to 100; assay type: in vivo, Glycine max; settings: POSTEMERGENCE; for Plant response rating, Soybean: 0 to 100 scale
# Method in brief: as §1
# velvetleaf [6] = assay: as above; assay type: in vivo, Abutilon theophrasti; settings: POSTEMERGENCE; for Plant response rating, Velvetleaf: 0 to 100 scale
# Method in brief: as §1
structure (smiles),measurement,setting,value
CC(C)COc1cc(-c2nn3c(c2Cl)CCCC3)c(F)cc1Cl [Compound 30],"Plant response rating, Sorghum",sorghum; 62 g/ha,20
same,"Plant response rating, Sorghum",sorghum; 250 g/ha,40
same,"Plant response rating (0 to 100), Sorghum",sorghum; Rate 4 g/ha,0
same,"Plant response rating (0 to 100), Sorghum",sorghum; Rate 16 g/ha,0
same,"Plant response rating, Velvetleaf","velvetleaf [1]; POSTEMERGENCE, Rate 50 g/ha",7
same,"Plant response rating, Velvetleaf","velvetleaf [1]; PREEMERGENCE, Rate 50 g/ha",5
same,"Plant response rating, Velvetleaf","velvetleaf [1]; Rate 200 g/ha, POSTEMERGENCE",10
same,"Plant response rating, Velvetleaf","velvetleaf [1]; Rate 200 g/ha, PREEMERGENCE",10
same,"Plant response rating, Lambsquarter","lambsquarters [2]; POSTEMERGENCE, Rate 50 g/ha",10
same,"Plant response rating, Lambsquarter","lambsquarters [2]; PREEMERGENCE, Rate 50 g/ha",8
same,"Plant response rating, Lambsquarter","lambsquarters [2]; Rate 200 g/ha, POSTEMERGENCE",10
same,"Plant response rating, Lambsquarter","lambsquarters [2]; Rate 200 g/ha, PREEMERGENCE",10
same,"Plant response rating, Rice","rice; POSTEMERGENCE, Rate 50 g/ha",5
same,"Plant response rating, Rice","rice; PREEMERGENCE, Rate 50 g/ha",0
same,"Plant response rating, Rice","rice; Rate 200 g/ha, POSTEMERGENCE",5
same,"Plant response rating, Rice","rice; Rate 200 g/ha, PREEMERGENCE",2
same,"Plant response rating (0 to 10 scale), Cotton","cotton; POSTEMERGENCE, Rate 50 g/ha",10
same,"Plant response rating, Cotton","cotton; POSTEMERGENCE, Rate 200 g/ha",10
same,"Plant response rating, Cotton","cotton; PREEMERGENCE, Rate 50 g/ha",2
same,"Plant response rating, Cotton","cotton; Rate 200 g/ha, PREEMERGENCE",6
same,"Plant response rating (0 to 100), Umbrella sedge","umbrella sedge; POSTEMERGENCE section, flood test, Rate 4 g/ha",10
same,"Plant response rating (0 to 100), Umbrella sedge","umbrella sedge; Rate 16 g/ha, under POSTEMERGENCE head (flood test species)",25
same,Plant response rating Umbrella sedge,umbrella sedge; 62 g/ha,30
same,Plant response rating Umbrella sedge,umbrella sedge; 250 g/ha,80
same,"Plant response rating, Sugar beet",sugar beet; 62 g/ha,100
same,"Plant response rating, Sugar beet",sugar beet; 250 g/ha,100
same,"Plant response rating (0 to 100), Sugar beet",sugar beet; Rate 4 g/ha,80
same,"Plant response rating (0 to 100), Sugar beet",sugar beet; Rate 16 g/ha,100
same,"Plant response rating, Morningglory",morningglory; 62 g/ha,80
same,"Plant response rating, Morningglory",morningglory; 250 g/ha,90
same,"Plant response rating (0 to 100), Morningglory",morningglory; Rate 4 g/ha,30
same,"Plant response rating (0 to 100), Morningglory",morningglory; Rate 16 g/ha,50
same,"Plant response rating, Nutsedge","purple nutsedge; POSTEMERGENCE, Rate 50 g/ha",2
same,"Plant response rating, Nutsedge","purple nutsedge; PREEMERGENCE, Rate 50 g/ha",0
same,"Plant response rating, Nutsedge","purple nutsedge; Rate 200 g/ha, POSTEMERGENCE",5
same,"Plant response rating, Nutsedge","purple nutsedge; Rate 200 g/ha, PREEMERGENCE",0
same,Plant response rating Barley Igri,barley; 62 g/ha,50
same,Plant response rating Barley Igri,barley; 250 g/ha,70
same,"Plant response rating (0 to 100), Barley Igri",barley; Rate 4 g/ha,30
same,"Plant response rating (0 to 100), Barley Igri",barley; Rate 16 g/ha,30
same,"Plant response rating, Soybean","soybean [3]; POSTEMERGENCE, Rate 50 g/ha",7
same,"Plant response rating, Soybean","soybean [3]; PREEMERGENCE, Rate 50 g/ha",0
same,"Plant response rating, Soybean","soybean [3]; Rate 200 g/ha, POSTEMERGENCE",2
same,"Plant response rating, Soybean","soybean [3]; Rate 200 g/ha, PREEMERGENCE",2
same,Plant response rating Lambsquarters,lambsquarters [4]; 62 g/ha,90
same,Plant response rating Lambsquarters,lambsquarters [4]; 250 g/ha,100
same,"Plant response rating (0 to 100), Lambsquarters",lambsquarters [4]; Rate 4 g/ha,50
same,"Plant response rating (0 to 100), Lambsquarters",lambsquarters [4]; Rate 16 g/ha,70
same,"Plant response rating, Rape",rape; 62 g/ha,100
same,"Plant response rating, Rape",rape; 250 g/ha,100
same,"Plant response rating (0 to 100), Rape",rape; Rate 4 g/ha,50
same,"Plant response rating (0 to 100), Rape",rape; Rate 16 g/ha,80
same,"Plant response rating, Corn",corn; 62 g/ha,30
same,"Plant response rating, Corn",corn; 250 g/ha,40
same,"Plant response rating (0 to 100), Corn",corn; Rate 4 g/ha,20
same,"Plant response rating (0 to 100), Corn",corn; Rate 16 g/ha,20
same,"Plant response rating (0 to 10 scale), Cheatgrass","cheatgrass; POSTEMERGENCE, Rate 50 g/ha",6
same,"Plant response rating, Cheatgrass","cheatgrass; POSTEMERGENCE, Rate 200 g/ha",7
same,"Plant response rating, Cheatgrass","cheatgrass; PREEMERGENCE, Rate 50 g/ha",0
same,"Plant response rating, Cheatgrass","cheatgrass; Rate 200 g/ha, PREEMERGENCE",4
same,"Plant response rating, Wild buckwheat","wild buckwheat; POSTEMERGENCE, Rate 50 g/ha",10
same,"Plant response rating, Wild buckwheat","wild buckwheat; PREEMERGENCE, Rate 50 g/ha",0
same,"Plant response rating, Wild buckwheat","wild buckwheat; Rate 200 g/ha, POSTEMERGENCE",10
same,"Plant response rating, Wild buckwheat","wild buckwheat; Rate 200 g/ha, PREEMERGENCE",6
same,"Plant response rating, Soybean",soybean [5]; 62 g/ha,50
same,"Plant response rating, Soybean",soybean [5]; 250 g/ha,50
same,"Plant response rating (0 to 100), Soybean",soybean [5]; Rate 4 g/ha,0
same,"Plant response rating (0 to 100), Soybean",soybean [5]; Rate 16 g/ha,20
same,"Plant response rating, Velvetleaf",velvetleaf [6]; 62 g/ha,100
same,"Plant response rating, Velvetleaf",velvetleaf [6]; 250 g/ha,100
same,"Plant response rating (0 to 100), Velvetleaf",velvetleaf [6]; Rate 4 g/ha,0
same,"Plant response rating (0 to 100), Velvetleaf",velvetleaf [6]; Rate 16 g/ha,60
